According to publication PMC5397059, “Design, synthesis and structure-activity relationship study of wollamide B; a new potential anti TB agent” (PLoS ONE, 2017):
≈ marks a conversion by molar mass, not a printed value. Non-standard residues stand in square brackets, D forms with d. Residues, ends and D or L forms follow the SMILES beside them. *: point of attachment. dPhe(4-Cl) = N[C@H](Cc1ccc(Cl)cc1)C(=O)O; NMeV = CN[C@H](C(=O)O)C(C)C; dOrn = NCCC[C@@H](N)C(=O)O; tBu = CC(C)(C)*

How the values were obtained:
[1] = Intrinsic clearance (CLint) assay, mouse liver microsomes; assay type: in vitro ADME; settings: for % LBF Mouse: liver blood flow; for CLint Mouse: mouse liver microsomes; for half-life at 0.5 µM: mouse, pooled mouse liver microsomes, pH 7.4, read-out: Microsomal t1/2 Mouse; for CLpred Mouse: predicted metabolic clearance
Description: (§1) Pooled mouse and human liver microsomes are purchased from Xenotech. Microsomes (final protein concentration 0.5 mg/mL, MgCl2 (final concentration = 5 mM) and test compound (final substrate concentration = 0.5] M; final DMSO concentration = 0.5%) in 0.1 M phosphate buffer pH 7.4 are pre-incubated at 37°C prior to the addition of NADPH (final concentration = 1 mM) to initiate the reaction. The final incubation volume is 600 μL.
(§2) Control incubation is included for each compound tested where 0.1 M phosphate buffer pH 7.4 is added instead of NADPH (minus NADPH). One control compound is included with each species. All incubations are performed singularly for each test compound. Each compound is incubated for 45 minutes and samples (100 μL) of incubate are taken at 0, 5, 15, 30 and 45 min. The control (minus NADPH) is sampled at 30 min only. The reactions are stopped by the addition of sample to 200 μL Acetonitrile: Methanol 3:1 containing internal standard. The terminated samples are centrifuged at 2,500 rpm for 20 min at 4°C to precipitate the protein. Quantitative analysis: following protein precipitation, the samples were analyzed using specific LC-MS/MS conditions. Data analysis: from a plot of ln peak area ratio (compound peak area/internal standard peak area) against time, the gradient of the line was determined. Subsequently, half-life and intrinsic clearance were calculated using the equations below: Eliminationrateconstant(K)=(−gradient) Halflife(t1/2)(min)=0.693/K Cli(mL/min/gprotien)=V×0.693/t1/2 WhereV=Incubationvolume(mL/gmicrosomalprotien)

[2] = Intrinsic clearance (CLint) assay, human liver microsomes; assay type: in vitro ADME; settings: for CLint Human: human liver microsomes; for half-life at 0.5 µM: human, pooled human liver microsomes, pH 7.4, human liver microsomes, read-out: Microsomal t1/2 Human; for % LBF Human: liver blood flow; for CLpred Human: predicted metabolic clearance
Description: as §1, §2

[3] = target: human serum albumin (Homo sapiens, UniProt P02768); assay: Human serum albumin (HSA) binding assay; assay type: in vitro ADME; settings: human serum albumin binding
Description: HSA binding assay was performed according to the method described by Valko K, et al. The basic principle of the measurements is the determination of gradient retention times of compounds on immobilized HSA column and converting these retention times to the appropriate property values using calibration. The peaks are detected and identified by UV. Calibration sets of compounds are measured before each run for which the HSA binding values are known. The retention times of the calibration set of compounds are plotted against these known values. The slope and the intercept of the obtained straight lines are used to calculate the HSA binding for the unknown compounds.

[4] = Artificial membrane permeability assay; assay type: in vitro ADME; settings: PAMPA, pH 7.4; passive artificial membrane permeability; read-out: Permeability
Description: A 8% L-a-phosphatidylcholine (EPC) in 1% cholesterol decane solution and a 1.8% EPC in cholesterol decane solution were prepared. The lipid solution was then aliquoted into 4 mL capped vials, sealed with parafilm and stored in-20°Cfreezer. The lipid solution was then transferred from 4 mL vial into 96-well half area plate (130μL/well) for daily assay usage. An additional 50 mM phosphate buffer with 0.5% encapsin, pH at 7.4 was prepared. The assay was run by the Biomek FX and Biomek software. The assay procedure is written under the Biomek software. For one batch assay, it can test two 96-well sample plates with at least one standard on each sample plate. The total assay time was about 4 hours. 3.5 μL of lipid solution were added to the filler plate, shaken for 12 seconds, and 250 μL of buffer were added to donor side and 100 μL to the receiver side. The assay plate was shaken for 45 min before adding the compounds. The test compounds (2.5 μL) were added to the donor side. The assay was run as replicates: Assay plates1 and 2 tested the sample plate 1; assay plates 3 and 4 tested the sample plate 2. The assay plates were then incubated and shaken for 3 hours at room temperature.
The assay samples were transferred to the HPLC analysis plates and 100 μL of receiver solution were aspirated and transferred to the receiver for analysis. Similarly, another 100 μL from the donor solution were transferred to the donor analysis plate.
Compound concentration was measured by HPLC at different time-points and permeability was established as nm/sec.

[5] = Chemi-Luminescent Nitrogen Detection (CLND) kinetic solubility assay; assay type: physicochemical; settings: phosphate buffered saline, pH 7.4; kinetic aqueous solubility by CLND; read-out: Solubility
Description: GSK in-house kinetic solubility assay: 5 μL of 10mM DMSO stock solution diluted to 100 uL with pH7.4 phosphate buffered saline, equilibrated for 1 hour at room temperature, filtered through Millipore Multiscreen HTS-PCF filter plates (MSSL BPC).
The filtrate is quantified by suitably calibrated flow injection CLND. The standard error of the CLND solubility determination is ±30 μM, the upper limit of the solubility is 500 μM when working from 10 mM DMSO stock solution.

[6] = system: Mtb H37Rv; settings: duplicate; analogues
[7] = Chrom logD assay; assay type: physicochemical; settings: reversed phase HPLC column (Gemini NX C18), pH 7.4; read-out: Log D
Description: The Chromatographic Hydrophobicity Index (CHI) values were measured using a reversed phase HPLC column (50 x 2 mmx 3 μMGemini NX C18, Phenomenex, UK) with fast acetonitrile gradient at starting mobile phase of 100% pH = 7.4 buffer. CHI values are derived directly from the gradient retention times by using a calibration line obtained for standard compounds. The CHI value approximates to the volume % organic concentration when the compound elutes. CHI is linearly transformed into ChromlogD by the formula: ChromlogD=0.0857CHI−2.00
The average error of the assay is ±3 CHI unit or ±0.25 ChromlogD.

human serum albumin, sequence (P02768 25-609): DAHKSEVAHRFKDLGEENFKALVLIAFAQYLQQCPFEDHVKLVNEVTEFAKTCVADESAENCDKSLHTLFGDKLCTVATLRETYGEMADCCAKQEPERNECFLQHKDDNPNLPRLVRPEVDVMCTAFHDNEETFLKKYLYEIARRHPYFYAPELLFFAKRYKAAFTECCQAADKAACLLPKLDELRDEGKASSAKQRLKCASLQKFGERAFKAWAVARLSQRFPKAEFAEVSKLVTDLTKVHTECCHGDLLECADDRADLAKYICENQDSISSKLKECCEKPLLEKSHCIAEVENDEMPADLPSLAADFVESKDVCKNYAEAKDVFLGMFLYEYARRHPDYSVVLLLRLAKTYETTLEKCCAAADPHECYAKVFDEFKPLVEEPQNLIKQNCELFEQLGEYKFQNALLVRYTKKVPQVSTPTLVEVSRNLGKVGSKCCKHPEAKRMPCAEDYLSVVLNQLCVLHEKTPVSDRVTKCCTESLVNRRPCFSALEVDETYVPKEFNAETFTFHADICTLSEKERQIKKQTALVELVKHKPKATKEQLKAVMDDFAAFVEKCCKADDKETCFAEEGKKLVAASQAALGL

SMILES | % LBF Mouse [1] [%] | CLint Mouse [1] [mL/min/g tissue] | half-life at 0.5 µM [1] [h] | CLpred Mouse [1] [mL/min/kg] | CLint Human [2] [mL/min/g tissue] | half-life at 0.5 µM [2] [h] | % LBF Human [2] [%] | CLpred Human [2] [mL/min/kg] | % HSA [3] [%] | Papp at 3 h [4] [×10⁻⁶ cm/s] | solubility kinetic at 1 h [5] [µg/mL] | MIC against Mtb H37Rv [6] [µM] | chromatographic logD [7]
CC[C@H](C)[C@@H]1NC(=O)[C@@H](Cc2ccc(Cl)cc2)NC(=O)[C@H](CC(C)C)NC(=O)[C@H](Cc2c[nH]c3ccccc23)NC(=O)[C@@H](CCCN)NC(=O)[C@@H](CCCN)NC1=O [Compound 18c] (cyclo(I[dOrn][dOrn]WL[dPhe(4-Cl)])) | 28.4 | 0.98 | 1.13 | 35.80 | 1.06 | 0.862 | 59.15 | 10.65 | 98.70 | 8 | 7 (≈ 8.51 µM) | 17.5 (≈ 14.4 µg/mL) | –
CC[C@H](C)[C@@H]1NC(=O)[C@H]([C@@H](C)CC)NC(=O)[C@@H](CC(C)C)NC(=O)[C@H](CC(C)C)NC(=O)[C@H](Cc2c[nH]c3ccccc23)NC(=O)[C@@H](CCCN)NC1=O [Compound 12c] (cyclo(II[dOrn]WL[dL])) | <16.39 | <0.48 | > 2.31 | <20.50 | 5.93 | 0.155 | 88.98 | 16.02 | 96.06 | 1.9 | ≥ 206 | 3.1 (≈ 2.33 µg/mL) | 2.94
CC[C@H](C)[C@@H]1NC(=O)[C@H](Cc2c[nH]c3ccccc23)NC(=O)[C@@H](CCCN)NC(=O)[C@H](CC(N)=O)NC(=O)[C@H](C(C)C)NC(=O)[C@@H](CC(C)C)NC1=O [Compound 19c] (cyclo(I[dL]VN[dOrn]W)) | <16.3 | <0.48 | > 2.31 | <20.50 | <0.40 | > 2.31 | <35.08 | <6.35 | 67.10 | < 1 | ≥ 183 | 7.5 (≈ 5.55 µg/mL) | 1.73
CC(C)C[C@H]1NC(=O)[C@@H](Cc2ccc(Cl)cc2)NC(=O)[C@H](Cc2c[nH]c3ccccc23)NC(=O)[C@@H](CCCN)NC(=O)[C@H](CC(N)=O)NC(=O)[C@H](C(C)C)NC1=O [Compound 17c] (cyclo(N[dOrn]W[dPhe(4-Cl)][dL]V)) | 17.9 | 0.54 | 2.06 | 22.60 | <0.40 | > 2.31 | <35.08 | <6.35 | 93.83 | 1.7 | ≥ 230 | 30 (≈ 24.3 µg/mL) | 2.12
COc1ccc(C[C@@H]2NC(=O)[C@@H](CCCN)NC(=O)[C@H](CC(N)=O)NC(=O)[C@H](C(C)C)NC(=O)[C@@H](CC(C)C)NC(=O)[C@H](CC(C)C)NC2=O)cc1 [Compound 15c] (cyclo(L[dL]VN[dOrn]Y(Me))) | 24.00 | 0.78 | 1.43 | 30.20 | <0.40 | > 2.31 | <35.08 | <6.35 | 46.55 | < 1 | ≥ 189 | – | 1.73
CC[C@H](C)[C@@H]1NC(=O)[C@@H](CC(C)C)NC(=O)[C@H](CC(C)C)NC(=O)[C@H](Cc2c[nH]c3ccccc23)NC(=O)[C@@H](CCCN)NC(=O)[C@H](COC(C)(C)C)NC1=O [Compound 11c] (cyclo(IS(tBu)[dOrn]WL[dL])) | <16.3 | <0.48 | > 2.31 | <20.50 | 3.33 | 0.276 | 81.90 | 14.70 | 92.68 | < 0.3 | 202 (≈ 258 µM) | – | 3
CC(C)C[C@@H]1NC(=O)[C@H](Cc2c[nH]c3ccccc23)NC(=O)[C@@H](CCCN)NC(=O)[C@H](CC(N)=O)NC(=O)[C@H](C(C)C)N(C)C(=O)[C@@H](CC(C)C)NC1=O [Compound 22c] (cyclo(L[dL][NMeV]N[dOrn]W)) | <16.3 | <0.48 | > 2.31 | <20.50 | <0.40 | > 2.31 | <35.08 | <6.35 | 73.98 | < 1 | ≥ 153 | – | 1.96
